Experimental findings from patent publication US8877731B2, “Azido nucleosides and nucleotide analogs” (Alios Biopharma, Inc., priority 2010, dated 2014) are described below.

One test has as its system RSV A2. Put plainly: RSV RT-PCR based assay. The format is cell-based. The procedure: RT-PCR based assays were performed in HEp-2 cells (ATCC: CCL-23) at a concentration of 20000 cell/well were plated in 96 well plates and incubated overnight. Each of the test compounds were ⅓ serially diluted and dosed to HEp-2 cells in duplicates. The highest final concentration for each compound was 100 uM. After 24 hour compound pre-incubation, RSV A2 (ATCC: VR-1540) at MOI of 0.1 was added. Two wells per compound were set aside as uninfected, untreated cell controls (CC), and four wells per test compound received virus only as a control for virus replication (VC). The assay was stopped 4 days after virus infection and conditioned media was removed for viral RNA isolation. The quantities of the RSV virus were measured by real-time PCR using a set of RSV specific primers and probe. The data was analyzed with Prism software with EC50 defined as drug concentration that reduced the viral load 50% from the viral control (VC).
(§1) Compounds of Formula (I) and Formula (II) are active in the assay as noted in Tables 2 and 3, where ‘A’ indicates an EC50<1 μM, ‘B’ indicates an EC50 of >1 μM and <10 μM, ‘C’ indicates an EC50>10 μM and <100 μM, and ‘D’ indicates an EC50>100 μM.

The test system of the next test is RSV Long strain. Put plainly: RSV CPE reduction assay. The format is cell-based. As for the experimental part:
CPE reduction assays were performed as described by Sidwell and Huffman et al., Appl Microbiol. (1971) 22(5):797-801 with slight modifications. HEp-2 cells (ATCC) at a concentration of 6000 cell/well were infected with RSV Long strain (ATCC) at a multiplicity of infection (m.o.i.) of 0.01, and each of the test compounds were provided to duplicate wells at final concentrations starting from 100 μM using ⅓ stepwise dilutions. For each compound, two wells were set aside as uninfected, untreated cell controls (CC), and two wells per test compound received virus only as a control for virus replication (VC). […] At the end of the incubation, 20 μl of cell counting kit-8 reagent (CCK-8, Dojindo Molecular Technologies, Inc.) were added to each well. After 4 hour incubation, the absorbance was measured in each well according to manufacturer's instruction, and the 50% effective concentration (EC50) was calculated by using regression analysis, based on the mean O.D. at each concentration of compound.
as §1

Setting [1] is: human respiratory syncytial virus, RT-PCR assay, HEp-2 cells, 24 hour compound pre-incubation, RSV A2 at MOI 0.1, 4 days after infection, viral load, read-out: EC50.
Where [2] appears, read: human respiratory syncytial virus, 144 h, CPE assay, HEp-2 cells infected with RSV Long strain, m.o.i. 0.01, 6 days, CCK-8 readout, read-out: EC50.
Setting [3] is: human respiratory syncytial virus, HEp-2.
[4] abbreviates: human respiratory syncytial virus, HEp-2, 144 h.
The mark [5] stands for this setting: RT-PCR assay, HEp-2 cells, 24 hour compound pre-incubation, RSV A2 at MOI 0.1, 4 days after infection, viral load, read-out: EC50.
Setting [6] is: CPE assay, HEp-2 cells infected with RSV Long strain, m.o.i. 0.01, 6 days, CCK-8 readout, read-out: EC50.

pEC50: −log10 of the molar value. Like-named read-outs stand apart in the source and are kept apart here.

With `CC(C)OC(=O)[C@H](C)NP(=O)(N[C@@H](C)C(=O)OC(C)C)OC[C@@]1(N=[N+]=[N-])O[C@@H](n2ccc(=O)[nH]c2=O)[C@H](F)[C@@H]1O` [Compound 40], the pEC50 in the test with RSV A2 (setting [1]) and in the test on RSV Long strain (setting [2]) was under 4.00 throughout. On to `[N-]=[N+]=N[C@]1(CO)O[C@@H](n2ccc(N)nc2=O)[C@H](O)[C@@H]1O` [Compound 7, 4′-azidocytidine], for which the values for the negative logarithm of the EC50 (pEC50) in the test with RSV A2 (setting [1]) and in the test on RSV Long strain (setting [2]) were 5.00 to 6.00 and 4.00 to 5.00, respectively. On the same counts, the results for `CC(C)OC(=O)[C@H](C)NP(=O)(OC[C@@]1(N=[N+]=[N-])O[C@@H](n2ccc(N)nc2=O)[C@H](O)[C@@H]1O)Oc1ccccc1` (stereo partly drawn) [Compound 22, 4′-azidocytidine 5′-(O-phenyl-N—(S)-1-(isopropoxycarbonyl)ethyl)phosphoramidate] are over 6.00 and over 6.00.

With `[N-]=[N+]=N[C@]1(CO)O[C@@H](n2ccc(=O)[nH]c2=O)[C@H](O)[C@@H]1O` [Compound 8, 4′-azidouridine], in the test on RSV Long strain (setting [2]), the pEC50 (as a rule, −log10 of the EC50, conventionally taken in molar units) was under 4.00. `[N-]=[N+]=N[C@]1(CO)O[C@@H](n2ccc(=O)[nH]c2=O)C(F)(F)[C@@H]1O` [Compound 5, 4′-azido-2′-deoxy-2′,2′-difluorouridine]: the negative-log EC50 (pEC50) with RSV A2 (setting [1]) and in the test on RSV Long strain (setting [2]) was under 4.00 throughout. Regarding `CC(C)OP1(=S)OC[C@@]2(N=[N+]=[N-])O[C@@H](n3ccc(=O)[nH]c3=O)[C@H](F)[C@@H]2O1` (stereo partly shown) [Compound 45, 4′-azido-2′-deoxy-2′-fluorouridine 3′,5′-cyclic thiophosphoric acid isopropyl ester], the negative-log EC50 (pEC50) in the test with RSV A2 (setting [3]) and in the test on RSV Long strain (setting [4]) was under 4.00 in each case. On to `CC(C)OP1(=S)OC[C@@]2(N=[N+]=[N-])O[C@@H](n3ccc(N)nc3=O)[C@H](F)[C@@H]2O1` (stereo partly shown) [Compound 46, 4′-azido-2′-deoxy-2′-fluorocytidine 3′,5′-cyclic thiophosphoric acid isopropyl ester], for which the pEC50 with RSV A2 (setting [3]) and with RSV Long strain (setting [4]) was under 4.00 in each case.

As for `C[C@]1(F)[C@H](n2ccc(=O)[nH]c2=O)O[C@@](CO)(N=[N+]=[N-])[C@H]1O` [Compound 51, 4′-azido-2′-deoxy-2′-α-fluoro-2′-β-methyluridine], the pEC50 with RSV A2 (setting [1]) and in the test with RSV Long strain (setting [2]) was under 4.00 in each case. In the case of `[N-]=[N+]=N[C@]1(CO)O[C@@H](n2cnc3c(=O)[nH]c(N)nc32)[C@@H](O)[C@@H]1O` [Compound 47, 4′-azidoarabinoguanosine], the pEC50 in the test on RSV A2 (setting [1]) and in the test with RSV Long strain (setting [2]) was under 4.00 throughout. Take `[N-]=[N+]=N[C@]1(CO)O[C@@H](n2ccc(N)nc2=O)[C@H](Cl)[C@@H]1O` [Compound 53, 4′-azido-2′-chloro-2′-deoxycytidine]: the pEC50 with RSV A2 (setting [1]) is 5.00 to 6.00.

Turning to `[N-]=[N+]=N[C@]1(CO)O[C@@H](n2ccc(=O)[nH]c2=O)[C@@H](O)[C@@H]1O` [Compound 12, 4′-azidoarabinouridine], the pEC50 in the test with RSV A2 (setting [1]) and with RSV Long strain (setting [2]) was under 4.00 in each case.

`[N-]=[N+]=N[C@]1(CO)O[C@@H](n2cnc(C(N)=O)n2)[C@H](O)[C@@H]1O` [Compound 43, 4′-azidoribavirin]: the pEC50 in the test on RSV A2 (setting [1]) and with RSV Long strain (setting [2]) was 4.00 to 5.00 in each case. In the case of `[N-]=[N+]=N[C@]1(CO)O[C@@H](n2ccc(=O)[nH]c2=O)[C@H](F)[C@@H]1O` [Compound 17, 4′-azido-2′-deoxy-2′-fluorouridine], the pEC50 with RSV A2 (setting [1]) and in the test on RSV Long strain (setting [2]) was under 4.00 each time. Turning to `CC(C)OC(=O)[C@H](C)NP(=O)(N[C@@H](C)C(=O)OC(C)C)OC[C@@]1(N=[N+]=[N-])O[C@@H](n2ccc(N)nc2=O)C(F)(F)[C@@H]1O` [Compound 33, 4′-azido-2′-deoxy-2′-difluorocytidine 5′-(N,N′-bis((S)-1-(isopropoxycarbonyl)ethyl))phosphordiamidate], the negative-log EC50 (pEC50) in the test with RSV A2 (setting [1]) and in the test on RSV Long strain (setting [2]) was over 6.00 throughout. As to `C[C@H](NP(=O)(OCC1(N=[N+]=[N-])OC(n2cnc3c(=O)[nH]c(N)nc32)C(F)C1O)Oc1ccccc1)C(=O)OC1CCCCC1` (stereo partly drawn) [Compound 31, 4′-azido-2′-deoxy-2′-fluoroguanosine 5′-(O-phenyl-N—((S)-cyclohexoxycarbonyleth-1-yl))phosphoramidate], the pEC50 in the test on RSV A2 (setting [5]) and in the test with RSV Long strain (setting [6]) was over 6.00 each time.

On to `COc1nc(N)nc2c1ncn2[C@@H]1O[C@@](CO)(N=[N+]=[N-])[C@@H](O)[C@H]1F` [Compound 48, 2-amino-9-(4-aido-2-deoxy-2-fluoro-1-ribofuranosyl)-6-methoxypurine], for which the figures for the negative-log EC50 (pEC50) with RSV A2 (setting [1]) and in the test on RSV Long strain (setting [2]) were over 6.00 and 5.00 to 6.00, respectively. In the same order, the values of `CC(C)OC(=O)[C@H](C)NP(=O)(OC[C@@]1(N=[N+]=[N-])O[C@@H](n2ccc(N)nc2=O)C(F)(F)[C@@H]1O)Oc1ccccc1` (stereo partly drawn) [Compound 18, 4′-azido-2′-deoxy-2′,2′-difluorocytidine 5′-(O-phenyl-N—(S)-1-(isopropoxycarbonyl)ethyl)phosphoramidate] are 5.00 to 6.00 and 5.00 to 6.00. On the same counts, the results for `CC(C)OC(=O)[C@H](C)NP(=O)(OC[C@@]1(N=[N+]=[N-])O[C@@H](n2ccc(N)nc2=O)[C@H](F)[C@@H]1O)Oc1ccccc1` (stereo partly drawn) [Compound 23, 4′-azido-2′-deoxy-2′-fluorocytidine 5′-(O-phenyl-N—(S)-1-(isopropoxycarbonyl)ethyl)phosphoramidate] are 5.00 to 6.00 and 5.00 to 6.00. On the same counts, the results for `CC(C)OC(=O)[C@H](C)NP(=O)(N[C@@H](C)C(=O)OC(C)C)OC[C@@]1(N=[N+]=[N-])O[C@@H](n2ccc(=O)[nH]c2=O)C(F)(F)[C@@H]1O` [Compound 39, 4′-azido-2′-deoxy-2′-difluorouridine 5′-(N,N-bis((S)-isopropoxycarbonyleth-1-yl))phosphordiamidate] are under 4.00 and under 4.00.

As for `CC(C)OC(=O)[C@H](C)NP(=O)(OC[C@@]1(N=[N+]=[N-])O[C@@H](n2ccc(=O)[nH]c2=O)C(F)(F)[C@@H]1O)Oc1ccccc1` (stereo partly drawn) [Compound 19, 4′-azido-2′-deoxy-2′,2′-difluorouridine 5′-(O-phenyl-N—(S)-1-(isopropoxycarbonyl)ethyl)phosphoramidate], the pEC50 in the test with RSV A2 (setting [1]) and in the test on RSV Long strain (setting [2]) was under 4.00 each time. As to `COc1nc(N)nc2c1ncn2C1O[C@@](CO)(N=[N+]=[N-])[C@@H](O)[C@H]1F` (stereo partly shown) [Compound 49, 2-amino-9-(4-aido-2-deoxy-2-fluoro-1-ribofuranosyl)-6-methoxypurine], the negative-log EC50 (pEC50) in the test with RSV A2 (setting [5]) and with RSV Long strain (setting [6]) was under 4.00 throughout. As to `CC(C)OC(=O)[C@H](C)NP(=O)(OC[C@@]1(N=[N+]=[N-])O[C@@H](n2ccc(N)nc2=O)[C@@H](O)[C@@H]1O)Oc1ccccc1` (stereo partly drawn) [Compound 34, 4′-azidoarabinocytidine 5′-(O-phenyl-N—(S)-1-(isopropoxycarbonyl)ethyl)phosphoramidate], the negative logarithm of the EC50 (pEC50) with RSV A2 (setting [1]) and with RSV Long strain (setting [2]) was under 4.00 in each case. As for `CC(C)OC(=O)[C@H](C)NP(=O)(OC[C@@]1(N=[N+]=[N-])O[C@@H](n2ccc(=O)[nH]c2=O)[C@H](O)[C@@H]1O)Oc1ccccc1` (stereo partly drawn) [Compound 21, 4′-azidouridine 5′-(O-phenyl-N—(S)-1-(isopropoxycarbonyl)eth-1-yl)phosphoramidate], the pEC50 in the test with RSV A2 (setting [1]) and with RSV Long strain (setting [2]) was over 6.00 in each case. On to `C[C@H](NP(=O)(OC[C@@]1(N=[N+]=[N-])O[C@@H](n2cnc3c(=O)[nH]c(N)nc32)[C@H](O)[C@@H]1O)Oc1ccccc1)C(=O)OC1CCCCC1` (stereo partly drawn) [Compound 29, 4′-azidoguanosine 5′-[O-phenyl-N—((S)-cyclohexoxycarbonyleth-1-yl))phosphoramidate], for which the negative-log EC50 (pEC50) in the test on RSV A2 (setting [1]) and with RSV Long strain (setting [2]) was over 6.00 in each case. In the case of `C[C@@H]1[C@H](n2ccc(=O)[nH]c2=O)O[C@@](CO)(N=[N+]=[N-])[C@H]1O` [Compound 6, 4′-azido-2′-deoxy-2′-methylarabinouridine], the negative logarithm of the EC50 (pEC50) in the test on RSV Long strain (setting [2]) was under 4.00. As for `C[C@@H]1[C@H](n2ccc(N)nc2=O)O[C@@](CO)(N=[N+]=[N-])[C@H]1O` [Compound 9, 4′-azido-2′-deoxy-2′-methylarabinocytidine], in the test on RSV Long strain (setting [2]), the pEC50 is under 4.00.

On to `[N-]=[N+]=N[C@@]12COP(=O)(O)O[C@H]1[C@@H](F)[C@H](n1ccc(=O)[nH]c1=O)O2` [Compound 32, 4′-azido-2′-deoxy-2′-fluorouridine 3′,5′-cyclic phosphate], for which the negative logarithm of the EC50 (pEC50) in the test with RSV Long strain (setting [2]) was under 4.00.
